Assay results reported in patent US20170204092A1, “4,5-DIHYDROISOXAZOLE DERIVATIVES AS NAMPT INHIBITORS” (AURIGENE DISCOVERY TECHNOLOGIES LIMITED, priority 2014, published 2017).
Where two headings read alike, the source gives them in different places.

Legend:
MiaPaCa-2 cells = assay: Cytotoxicity assay in MiaPaCa-2 (XTT, 72 h); type: cell-based; conditions: for inhibition at 10 µM: read-out: Cell cytotoxicity assay (% Inhibition at 10 μM); for IC50: XTT, read-out: Cell cytotoxicity assay IC50 in range; for inhibition at 1 µM: read-out: Cell cytotoxicity assay (% Inhibition at 1 μM)
Description: MiaPaCa-2 Cells (ATCC) were seeded in 96 well plates (Costar clear flat bottom) at a density of 3000 cells/well and allowed to settle overnight. Test compounds were dissolved in dimethyl sulphoxide (DMSO-Sigma Aldrich, D2650) and incubated with MiaPaCa-2 cells for 72 h. Post 72 h, 50 μl XTT (1 mg/mL; Invitrogen, X 6493) and PMS ([…]; Sigma Aldrich, P9625) reagents were added to the cells in 100 μl of cDMEM (Sigma Aldrich-D5648)+10% FBS (Hyclone-5430088-03)+1×Pen Strep (Sigma Aldrich-P0781). After 1 hour incubation with XTT and PMS absorbance was monitored with Spectramax M3 (Molecular Device). Percentage inhibition of proliferation at 10 μM and 1 μM concentrations was calculated by considering DMSO control as 0% inhibition. IC50 values were plotted using Graph pad prism software (Graph pad Inc, La Jola, Calif., USA).

[1] = biological target: T1, recombinant NAMPT wild type protein (Homo sapiens, UniProt P43490); assay: NAMPT fluorescence assay; type: biochemical; conditions: 50 ng NAMPT, 2 μM Nam, 10 point dose response; read-out: Fluorescence assay IC50 in range
T1 construct: made in house; host or cells: E. coli
Description: The enzymatic assay was standardized using in-house recombinant NAMPT wild type protein from E. coli expression & NAM (Cat #47865-U) as a substrate. The product NMN formed after enzymatic reaction was derivatized to a fluorescent derivative through sequentially reacting with acetophenone/KOH and formic acid. The derivatized fluorescent NMN derivative was detected at 382 nm excitation wavelength and a 445 nm emission wavelength. […] The fluorescence was measured (Excitation at 382 nm & Emission at 445 nm) using Victor^3 V fluorimeter. The data is calculated using the RFU values. The final concentration of DMSO was 2% in the assay. Each individual IC50 was determined using 10 point dose response curve generated by GraphPad Prism software Version 4 (San Diego, Calif., USA) using nonlinear regression curve fit for sigmoidal dose response (variable slope).

[2] = Homo sapiens, MIA PaCa-2, 72 h, 10 μM, DMSO control = 0% inhibition
[3] = Homo sapiens, MIA PaCa-2, 72 h, DMSO control = 0% inhibition

T1 sequence (P43490 whole entry): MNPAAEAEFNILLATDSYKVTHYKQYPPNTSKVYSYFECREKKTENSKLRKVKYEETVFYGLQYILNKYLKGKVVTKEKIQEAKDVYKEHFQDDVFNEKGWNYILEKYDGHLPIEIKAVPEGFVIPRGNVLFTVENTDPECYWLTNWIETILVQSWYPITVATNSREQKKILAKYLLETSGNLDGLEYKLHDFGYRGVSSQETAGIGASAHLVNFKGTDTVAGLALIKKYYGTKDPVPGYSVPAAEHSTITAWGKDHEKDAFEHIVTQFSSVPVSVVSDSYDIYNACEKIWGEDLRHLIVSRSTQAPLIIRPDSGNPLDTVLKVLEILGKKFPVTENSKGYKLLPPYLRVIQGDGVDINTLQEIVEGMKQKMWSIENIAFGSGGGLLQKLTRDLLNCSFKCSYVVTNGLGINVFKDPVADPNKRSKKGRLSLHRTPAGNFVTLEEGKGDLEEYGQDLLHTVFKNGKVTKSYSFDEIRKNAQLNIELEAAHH

Row | Compound | IC50 [1] | Cell cytotoxicity assay (% Inhibition at 1 μM) (MiaPaCa-2 cells; DMSO control = 0% inhibition) | inhibition at 10 µM (MiaPaCa-2 cells; [2]) | IC50 (MiaPaCa-2 cells) | inhibition at 1 µM (MiaPaCa-2 cells; [3]) | IC50 (MiaPaCa-2 cells; Homo sapiens, MIA PaCa-2, 72 h) | Cell cytotoxicity assay (% Inhibition at 10 μM) (MiaPaCa-2 cells; 10 μM, DMSO control = 0% inhibition)
1 | N#Cc1ccc(OCC2CC(CNC(=O)c3ccc4nccn4c3)=NO2)c(-c2ccc(F)nc2)n1 (racemic) [Example 10, N-((5-(((6-cyano-6′-fluoro-[2,3′-bipyridin]-3-yl)oxy)methyl)-4,5-dihydroisoxazol-3-yl)methyl)imidazo[1,2-a]pyridine-6-carboxamide] | 10 to 25 nM | – | 95% | – | 95% | 50 to 250 nM | –
2 | O=C(NCC1=NOC(COc2cc(Cl)cnc2-c2ccc(F)nc2)C1)c1ccc2nccn2c1 (racemic) [Example 14, N-((5-(((5-chloro-6′-fluoro-[2,3′-bipyridin]-3-yl)oxy)methyl)-4,5-dihydro-isoxazol-3-yl)methyl)imidazo[1,2-a]pyridine-6-carboxamide] | 10 to 25 nM | – | 95% | – | 95% | < 50 nM | –
3 | O=C(NCC1=NOC(COc2cccnc2-c2ccc(Cl)nc2)C1)c1ccc2nccn2c1 (racemic) [Example 8, N-((5-(((6′-chloro-[2,3′-bipyridin]-3-yl)oxy)methyl)-4,5-dihydroisoxazol-3-yl)methyl)imidazo[1,2-a]pyridine-6-carboxamide] | 10 to 25 nM | – | – | – | – | < 50 nM | –
4 | Cc1cc(NC(=O)NCC2=NOC(COc3cccnc3-c3ccc(F)nc3)C2)ccn1 (racemic) [Example 16, 1-((5-(((6′-fluoro-[2,3′-bipyridin]-3-yl)oxy)methyl)-4,5-dihydroisoxazol-3-yl)methyl)-3-(2-methylpyridin-4-yl)urea] | < 10 nM | – | 89% | – | 89% | 50 to 250 nM | –

Continued, in another order:

Row | IC50 [1] | Compound | Cell cytotoxicity assay (% Inhibition at 1 μM) (MiaPaCa-2 cells; DMSO control = 0% inhibition) | inhibition at 10 µM (MiaPaCa-2 cells; [2]) | IC50 (MiaPaCa-2 cells) | inhibition at 1 µM (MiaPaCa-2 cells; [3]) | IC50 (MiaPaCa-2 cells; Homo sapiens, MIA PaCa-2, 72 h) | Cell cytotoxicity assay (% Inhibition at 10 μM) (MiaPaCa-2 cells; 10 μM, DMSO control = 0% inhibition)
5 | < 10 nM | O=C(NCC1=NOC(COc2cc(F)cnc2-c2ccc(F)nc2)C1)c1ccc2nccn2c1 (single isomer, unassigned) [Example 9a, N-((5-(((5,6′-difluoro-[2,3′-bipyridin]-3-yl)oxy)methyl)-4,5-dihydroisoxazol-3-yl)methyl)imidazo[1,2-a]pyridine-6-carboxamide] | 12% | 90% | > 250 nM | – | – | –
6 | 10 to 25 nM | O=C(NCC1=NOC(COc2cc(F)cnc2-c2ccc(F)nc2)C1)c1ccc2nccn2c1 (racemic) [Example 9, N-((5-(((5,6′-difluoro-[2,3′-bipyridin]-3-yl)oxy)methyl)-4,5-dihydroisoxazol-3-yl)methyl)imidazo[1,2-a]pyridine-6-carboxamide] | – | 89% | – | 88% | < 50 nM | –
7 | < 10 nM | O=C(NCC1=NOC(COc2cccnc2-c2cccnc2)C1)c1ccc2nccn2c1 (single isomer, unassigned) [Example 7a, N-((5-(([2,3′-bipyridin]-3-yloxy)methyl)-4,5-dihydroisoxazol-3-yl)methyl)-imidazo[1,2-a]pyridine-6-carboxamide] | – | – | < 50 nM | – | – | –
8 | 10 to 25 nM | O=C(NCC1=NOC(COc2cc(F)cnc2-c2ccc(F)nc2)C1)c1ccc2nccn2c1 (single isomer, unassigned) [Example 9b, N-((5-(((5,6′-difluoro-[2,3′-bipyridin]-3-yl)oxy)methyl)-4,5-dihydroisoxazol-3-yl)methyl)imidazo[1,2-a]pyridine-6-carboxamide] | 95% | – | < 50 nM | – | – | 95%
9 | < 10 nM | O=C(NCC1=NOC(COc2cccnc2-c2ccc(F)nc2)C1)Nc1ccncc1 (racemic) [Example 17, 1-((5-(((6′-fluoro-[2,3′-bipyridin]-3-yl)oxy)methyl)-4,5-dihydroisoxazol-3-yl)methyl)-3-(pyridin-4-yl)urea] | – | 89% | – | 90% | < 50 nM | –
10 | < 10 nM | Cn1cc(-c2cccnc2OCC2CC(CNC(=O)c3ccc4nccn4c3)=NO2)cn1 (racemic) [Example 1, N-((5-(((3-(1-methyl-1H-pyrazol-4-yl)pyridin-2-yl)oxy)methyl)-4,5-dihydroisoxazol-3-yl)methyl)imidazo[1,2-a]pyridine-6-carboxamide] | – | – | – | – | > 250 nM | –
